We go through ten molecules from US20210346354A1, “MACROPINOCYTOSIS IN CANCER” (Memorial Sloan-Kettering Cancer Center, priority 2015, published 2021).

For series [1], the system named is K-Ras^G12D MEFs. Put plainly: Lysosomal degradation of DQ-BSA (fluorescence dequenching) in K-Ras^G12D MEFs. The series is classed as cell-based, mouse. As to conditions: for torin 1-induced increase in DQ-BSA fluorescence when transcription is blocked: 5 μg/ml actinomycin D or 1 μM triptolide, 30 min pre-treatment, 6 h DQ-BSA. How it is done: For live imaging, medium was supplemented with 0.3 mg/ml DQ Green BSA. 1 h prior to imaging, 50 nM LysoTracker Red and 0.2 μg/ml Hoechst were added. Cells were imaged either immediately after addition of DQ-BSA and torin 1, or after 5-6 h incubation using a Zeiss LSM 5 LIVE.
To characterize how cells derive leucine from extracellular proteins, cellular albumin uptake was investigated using constitutively fluorescent albumin and intracellular albumin proteolysis using a self-quenched albumin that emits fluorescence upon degradation (DQ-BSA) (Reis et al., 1998). […] It was then determined whether lysosomal albumin degradation was required to support growth during leucine starvation. […] Ras GTPases can promote cellular uptake of macromolecules through macropinocytosis (Bar-Sagi and Feramisco, 1986). […] To investigate whether this endocytic pathway contributed to albumin-dependent growth, cells were treated with the Na^+/H^+ exchange inhibitor EIPA, which blocks macropinocytosis but not other endocytic pathways (West et al., 1989).
To distinguish these possibilities, it was first tested whether mTORC1 inhibition increased internalization of extracellular macromolecules. […] It was next examined whether mTORC1 inhibition affected lysosomal degradation of internalized proteins.

Series [2] relates to K-Ras^G12D MEFs. Description: Proliferation assay (cell numbers) of K-Ras^G12D MEFs in starvation medium. Type of series: cell-based, mouse. How it is done:
(§1) Cell culture experiments were performed at 37° C. and 5% CO2 in DMEM/F12 with 10% dialyzed FBS (molecular weight cut-off 10,000; Gemini Biosystems), 100 U/mL penicillin, 100 μg/mL streptomycin, 5 mM glucose and 2 mM glutamine. For proliferation assays, MEFs were plated in complete medium, 5 h later briefly rinsed and then cultured in starvation medium as indicated. For EAA titration experiments, EAAs were supplemented at indicated percentages of 1×MEM amino acid solution (M5550, Sigma). Cancer cell lines were cultured in complete medium for 1 day prior to starvation. Numbers of adherent cells, which are >95% viable as assessed by Trypan Blue exclusion were determined using a Multisizer 4 Coulter Counter (Beckman). For mTOR activation and localization experiments, cells were rinsed and then incubated in EAA starvation medium (DMEM/F12 lacking all amino acids except glutamine) for 1 h, and subsequently placed in medium supplemented with EAAs (1×MEM amino acid solution), albumin (3%, if not stated otherwise) or fresh EAA-free starvation medium for indicated periods of time.

For a further series, the system named is mTORC1. Description: mTORC1 re-activation after 1 h EAA starvation, Western blotting against phosphorylated S6K1. Conditions: for albumin-dependent mTORC1 activation: 3% albumin. The series is classed as cell-based, mouse. How it is done: Cells were rinsed with ice-cold PBS and detached from culture plates by incubation with ice-cold trypsin (0.05%). Trypsin was inactivated with ice-cold serum, cells pelleted and rinsed with ice cold PBS. Cells were lysed in ice-cold lysis buffer [50 mM HEPES, pH 7.4, 40 mM […], 2 mM EDTA, 1 mM Na Orthovandanate, 50 mM NaF, 10 mM Na Pyrophosphate, 10 mM Na Glycerophosphate, 1% Triton X-100, 1×Halt protease and phosphatase inhibitor cocktails (Thermo Scientific)] for 15 min, and soluble lysate fractions isolated by centrifugation at 16,000 g for 10 min. Protein concentrations were determined with the Pierce BCA Protein Assay (Thermo Scientific) and equal amounts of proteins analyzed by SDS gel electrophoresis and Western blotting following standard protocols.
as §1
Cells can sense EAAs through the mTORC1 pathway, which integrates amino acid levels with inputs from growth factor signaling to promote cell growth (Ma and Blenis, 2009; Shimobayashi and Hall, 2014). When cells are placed in EAA-free medium, the ability of mTORC1 to phosphorylate downstream targets is repressed. To test if catabolism of extracellularly provided proteins could restore mTORC1 activity in the absence of EAAs, mTORC1 was inactivated by subjecting MEFs to 1 h EAA starvation. Fresh medium containing EAAs or different concentrations of albumin was then added and mTORC1 re-activation assessed by Western blotting against phosphorylated S6K1.

For series [3] the following is noted: background statement; cited from earlier work.
For another series, the system named is wild type MEFs. Description: Proliferation assay (cell numbers) of wild type MEFs in starvation medium. Type of series: cell-based, mouse. The procedure: as §1
The subject of another series is mTOR. Put plainly: Lysosomal recruitment of mTOR, immunofluorescence against mTOR and LAMP2. Type of series: cell-based, mouse. As to conditions: K-Ras^G12D MEFs. How it is done: For immunostainings, cells were rinsed with ice-cold PBS, fixed with 4% formaldehyde in PBS for 15 min and permeabilized with 0.05% Triton X-100 in PBS. After rinsing with PBS, cells were blocked with PBG (0.5% BSA, 0.2% cold water fish gelatin in PBS) for 30 min, incubated with primary antibodies in PBG for 1.5 h, washed two times with PBG+4% normal goat serum and then incubated with secondary antibodies in PBG+4% NGS for 45 min. After three washes with PBS, cells were mounted on microscope slides with Prolong Antifade+DAPI and imaged using a Leica TCS SP5-II.
as §1, with “For mTOR activation and localization experiments, cells were rinsed and then incubated in EAA starvation medium (DMEM/F12 lacking all amino acids except glutamine) for 1 h, and subsequently placed in medium supplemented with EAAs (1×MEM amino acid solution), albumin (3%, if not stated otherwise) or fresh EAA-free starvation medium for indicated periods of time.” left out

In series [4] the test system is wild type and heterozygous K-Ras^G12D MEFs. Put plainly: Cell numbers of wild type and K-Ras^G12D MEFs in medium lacking nutrients ±3% albumin. Type of series: cell-based, mouse. As to conditions: for cell viability: 3% albumin supplementation. How it is done:
The dashed line indicates starting cell numbers. # below detection limit. *p<0.05, ** p<0.01, ***p<0.001. […] Data are represented as mean±STDEV (n=3).
as §1
To investigate whether activation of K-Ras signaling altered a cell's ability to metabolize extracellular proteins, we compared immortalized mouse embryonic fibroblasts (MEFs) harboring wild type K-Ras or a constitutively active K-Ras^G12D allele. Albumin is the major protein in plasma and interstitial fluids, its levels ranging from 2-5%. To mimic the protein-rich composition of extracellular fluids, culture medium was therefore supplemented with 10% dialyzed fetal bovine serum ±3% albumin.

The mark [5] stands for this setting: K-Ras^G12D MEFs, inhibitor added at onset of starvation.
Setting [6] is: EAAs at 5% of the levels in complete medium, 3% albumin.
Setting [7] is: 3% albumin after 1 h EAA starvation.

Numbered stars: 1 amine (or outer) side, 2 acyl side, 3 side chain; on linkers, the order of the positions; unused ones are H or OH. Bridge positions count the residues as written; N and C are the ends. Square brackets hold non-standard residues; d marks the D form. Peptide text beside a SMILES is read from it. I, II: the chains in the order shown. Actinocin(9to1) = Cc1c2oc3c(C)ccc(C(=O)[*:1])c3nc-2c(C(=O)[*:2])c(N)c1=O; NMeV = CN[C@H](C(=O)O)C(C)C; Sar = CNCC(=O)O

On to `CC(C)[C@]12O[C@H]1[C@@H]1O[C@]13[C@]1(O[C@H]1C[C@H]1C4=C(CC[C@@]13C)C(=O)OC4)[C@@H]2O` [triptolide], for which the “torin 1-induced increase in DQ-BSA fluorescence when transcription is blocked” value with K-Ras^G12D MEFs [1] is on record as “unaffected”.

Regarding `CCN(c1nc(N)c(C(=O)NC(=N)N)nc1Cl)C(C)C` [EIPA], the cell proliferation result in the series with K-Ras^G12D MEFs [2] (EIPA treatment with free leucine added to culture medium) is “restored”; in the series on K-Ras^G12D MEFs [2] (leucine-free medium +3% albumin, 25 μM EIPA, day 3), “strongly decreased”. Besides, in the series with mTORC1 (setting [5]), the “albumin-dependent mTORC1 activation” value is recorded as “strongly reduced”.

On to `C/C1=C\[C@H](C)C[C@H](C)OC(=O)C[C@H](c2ccc(O)cc2)NC(=O)[C@@H](Cc2c(Br)[nH]c3ccccc23)N(C)C(=O)[C@H](C)NC(=O)[C@@H](C)C1` [jasplakinolide], for which the “albumin-dependent mTORC1 activation” value with mTORC1 (setting [5]) was “strongly reduced”.

Take `CCN(CC)CCCC(C)Nc1ccnc2cc(Cl)ccc12` (centres unmarked) [chloroquine]: in the series with K-Ras^G12D MEFs [1] (250 nM torin 1 plus 20 μM chloroquine or protease inhibitors, 6 h), the “DQ-BSA degradation in torin 1-treated cells” value is reported as “abrogated DQ-BSA degradation”.

Take `C=C1[C@@H](C)[C@H]2[C@H](Cc3ccccc3)NC(=O)[C@]23[C@H](OC(C)=O)/C=C/[C@@](C)(O)C(=O)[C@@H](C)C/C=C/[C@H]3[C@@H]1O` [cytochalasin D]: the “albumin-dependent mTORC1 activation” value in the series with mTORC1 (setting [5]) is reported as “strongly reduced”.

As for `CO[C@H]1C[C@@H]2CC[C@@H](C)[C@@](O)(O2)C(=O)C(=O)N2CCCC[C@H]2C(=O)O[C@H]([C@H](C)C[C@@H]2CC[C@@H](O)[C@H](OC)C2)CC(=O)[C@H](C)/C=C(\C)[C@@H](O)[C@@H](OC)C(=O)[C@H](C)C[C@H](C)/C=C/C=C/C=C/1C` [rapamycin], in series [3], the stability result is “not very stable”.

As to `Oc1ccc2ccccc2c1SSc1c(O)ccc2ccccc12` [IPA-3], the “albumin-dependent mTORC1 activation” value in the series on mTORC1 (setting [5]) is “strongly reduced”.

For the molecule “albumin: bovine serum albumin (A1470, Sigma) added to medium as extracellular protein nutrient”, the cell proliferation entry in the series on K-Ras^G12D MEFs [2] (setting [6]) was “significant increase in proliferation”; in the series with K-Ras^G12D MEFs [2] (leucine-free medium containing 3% albumin, several consecutive days), “able to sustain proliferation”; in series [4] (glucose-free medium ±3% albumin), “ceased to proliferate, regardless of the presence of 3% albumin”. Further, the “albumin concentration at which proliferation could be sustained” value in the series on K-Ras^G12D MEFs [2] (low-EAA medium (5% EAAs)) is “at least 1%”. Further, the proliferation rate result in the series with K-Ras^G12D MEFs [2] (low-EAA medium, albumin concentration raised to 3%) is recorded as “increased progressively”. Also, the cell numbers entry with K-Ras^G12D MEFs [2] (medium lacking glutamine, 3% albumin supplementation) is on record as “increase in cell numbers, albeit to a minor extent”. Besides, the cell viability result is recorded as “rescued cell viability” in the series on K-Ras^G12D MEFs [2] (medium lacking isoleucine, lysine, or arginine, physiological levels of albumin (3%)); “improved viability” with wild type MEFs (low-EAA medium, increasing albumin levels (1-3%)); “modestly improved viability” in series [4] (non-essential amino acid (NEAA) starvation); “completely restored” in series [4] (starved for leucine). Also, in the series on wild type MEFs (setting [6]), the survival and proliferation entry is recorded as “improved survival of wild type MEFs, but did not support their proliferation”. For the same molecule, in the series on mTORC1 (setting [7]), the “time after which mTORC1-dependent phosphorylation resumed” value was determined as 2 h. The “time to maximal levels of mTORC1-dependent phosphorylation” value in the series on mTORC1 (setting [7]) is given as 4 h. Moreover, the S6K1 phosphorylation entry with mTORC1 (wild type and K-Ras^G12D MEFs, EAA-free medium with 1-3% albumin) is “concentration-dependent increase in S6K1 phosphorylation”. Further, in the series with mTOR (1 h EAA starvation, then 3% albumin), the “subcellular localization of mTOR” value was “localized to punctate structures that were marked by the lysosomal membrane protein LAMP2”. Further, the cell survival result in series [4] (medium lacking all essential amino acids (EAAs), 3% albumin) was “striking rescue of cell survival”.

For `Cc1c2oc3c(C)ccc(C(=O)N[C@@H]4C(=O)N[C@H](C(C)C)C(=O)N5CCC[C@H]5C(=O)N(C)CC(=O)N(C)[C@@H](C(C)C)C(=O)O[C@@H]4C)c3nc-2c(C(=O)N[C@@H]2C(=O)N[C@H](C(C)C)C(=O)N3CCC[C@H]3C(=O)N(C)CC(=O)N(C)[C@@H](C(C)C)C(=O)O[C@@H]2C)c(N)c1=O` [actinomycin D] (I: T[dV]P[Sar][NMeV] / II: T[dV]P[Sar][NMeV]; ester I:1-I:C, II:1-II:C; linker I:N-II:N via Actinocin(9to1)), the “torin 1-induced increase in DQ-BSA fluorescence when transcription is blocked” value with K-Ras^G12D MEFs [1] is “unaffected”.

Regarding `CO/C1=C\C(C)=C\[C@@H](C)[C@@H](O)[C@@H](C)C/C(C)=C/C=C/[C@H](OC)[C@@H]([C@@H](C)[C@@H](O)[C@H](C)[C@@]2(O)C[C@@H](O)[C@H](C)[C@@H](C(C)C)O2)OC1=O` [bafilomycin A1], in the series on mTORC1 (setting [5]), the “albumin-dependent mTORC1 activation” value is “strongly suppressed” and the “mTORC1 activation by EAAs” value is “did not perturb”. In addition, the “movement of mTOR to lysosomal membranes in response to albumin” value in the series with mTOR (200 nM bafilomycin A1 added at onset of EAA starvation) is “completely blocked”.
